Data published in article PMC7395176, “Retromer stabilization results in neuroprotection in a model of Amyotrophic Lateral Sclerosis” (Nature Communications, 2020).

How the values were obtained:
Format in all cases: cell-based
[1] = tested on: SOD1^G93A-transfected Neuro2a cells; test: Lyso-tracker analysis of lysosomes in SOD1G93A-transfected Neuro2a cells; details: 24 h starvation, 10µM
Procedure: Lysosomal alterations are early events in ALS[7],[56]. We speculated that an impairment of the retromer should alter protease trafficking via CI-MPR, and therefore disrupt lysosomal homeostasis. […] We transfected Neuro2a cells with plasmids encoding the Sh56-RNAi to downregulate VPS35. After 24 h of starvation, we analyzed the lysosomes using Lyso-tracker[58]. We observed enlarged and abnormally distributed lysosomes in cells with VPS35 interference by Sh56 (Supplementary Fig. 12a–c). […] We asked whether the overexpression of SOD1^G93A would also result in similar lysosomal alterations by transfecting Neuro2a cells with plasmids encoding SOD1^G93A, with or without compound 2a.
VPS35 knockdown impairs lysosomal stability
Panels a and b, Neuro2a cells (4x10^4cells/well) transfected with the scramble plasmid (0.5 µg/well, a)or with the VPS35 RNAi plasmids (Sh56, 0.5 µg/well, b) along with plasmid encoding the GFP (0.1 µg/well) and labelled with Lyso-tracker (75 nM). Quantifications of Lyso Tracker-covered areas (%± SD) in individual GFP+ cells were done on merged confocal images and data are shown in c (scramble: n=52 cells, Sh56: n=39 cells, data are collected from 3 independent experiments, p<0.0001). Protein lysates from Neuro2a cells (3x10^5 cells/well) receiving scramble or Sh56 plasmids (2 µg/well for 48h) were labelled for Ubiquitin and β-Actin (d). […]

VPS35 = VPS35 (Mus musculus, UniProt Q9EQH3+Q9QZ88); test: Cycloheximide (CHX) chase assay of VPS35 degradation in Neuro2a cells; design: We incubated Neuro2a cells with compounds 2a–6a (10 µM); endogenous in cells; host or cells: Neuro2a (ATCC CCL-131); details: 10 µM 24 h pretreatment, CHX up to 8 h
Procedure: We next measured VPS35 degradation rates by a cycloheximide (CHX) chase assay. Neuro2a cells received vehicle or compound 2a (10 µM) for 24 h, then CHX was added and VPS35 levels were measured by WB.
Cycloheximide (CHX) assay was done on Neuro2a cells seeded in 6-well plates and incubated with compound 2a (10 µM) or vehicle for 24 h. We next added CHX (Sigma–Aldrich) at 10 µg/mL and cells were collected at 0, 2, 4, and 8 h for the time-course assay of VPS35 levels by WB.
Compound 2a stabilizes VPS35 levels in Neuro2a cells
A cycloheximide (CHX) chase assay was performed to determine the degradation rate of VPS35 in Neuro2a cells (3x10^5 cells/well). Cells were treated with vehicle or 2a (10 µM) for 24 h, and then chased with CHX (10 µg/mL) for 2, 4 and 8h.
WBs for VPS35 and β-Actin levels. Quantifications of normalized VPS35 levels (means normalized ratios ± SEM versus the time 0) are shown inpanel b (vehicle: n=10 independent wells, 2a: n=8 independent wells obtained from 3 independent experiments; control vs. 2a at 8 hours: p=0.009). c, quantitative real time PCR for Vps35, Vps26 and Vps29 mRNA (Vps35: controls n=8 independent wells; 2a: n=9 independent wells; Vps26 and Vps29: n=9 independent wells/group); data were collected from 3 independent experiments. […]

[2] = tested on: SOD1^G93A-transfected Neuro2a cells; test: Golgi morphology (Golgin97) in SOD1G93A-transfected Neuro2a cells; details: 10 µM
Description: The Golgi apparatus is affected in MNs from ALS patients and in cells overexpressing mutant SOD1 forms[35]–[37]. We transiently transfected Neuro2a cells with plasmids encoding SOD1^G93A before treatment with compound 2a. […] We next determined the viability of Neuro2a cells transfected with SOD1^G93A and exposed to compound 2a using a colorimetric assay. Controls cells received LacZ plasmids. […] We observed a slight, but not significant, reduction of cell viability in […] Neuro2a cells (Fig. 3b). […] The increased cell viability provided by compound 2a could result from unknown, nonspecific off-target effects. Therefore, we used plasmids encoding VPS35 to increase/stabilize the retromer complex. […] However, this phenotype was reverted co-transfecting VPS35 and SOD1^G93A plasmids (Fig. 3c).
Golgi morphology was assessed in control or in Neuro2a cells receiving G93A plasmids with or without compound 2a (10 µM) as well as in GFP-transfected cells as additional control. We used Golgin97 immunofluorescence to label trans-Golgi network membranes. We classified Golgi morphology as follow: normal (polarized network), intermediate (partially fragmented) or fragmented (severely fragmented with Golgi stacks dispersed in the cytoplasm throughout). […] Golgi subclasses were expressed as a percent of the total number of Golgi scored for each experimental condition.

NC(N)=N/N=C/c1cccc(/C=N/N=C(N)N)c1 [compound 2a, phenyl-1,3-bis-guanylhydrazone]
enlarged lysosomes (Lyso-tracker) [1]: significantly reverted this phenotype | VPS35 degradation in CHX chase (VPS35): protected VPS35 from degradation | trans-Golgi fragmentation [2]: significantly reverted this phenotype
